The test system of series [1] is MCF-7 cells. In words: Detection of endocrine-like substance by number of MCF-7 cells in the laminated cell culture system. The class given is cell-based. The note with it: laminated cell culture system (MCF-7 + rat primary hepatocytes + rat vascular endothelial cells), 0.1 μg/ml, 14 days; compared with MCF-7 only and monolayer hepatocytes + MCF-7. The procedure:
40,000 of estrogen-like substance detection cells (MCF-7) were inoculated on a 12-well microplate and cultured for 7 days under the conditions of 37° C. and 5% CO2 to prepare an MCF-7 cell layer.
The carrier for cell culture prepared in Example 1 was adhered to bottom of a 20-mm petri dish (FALCON, No. 2163) with a small amount of sterilized water, and 40,000 cells of rat primary hepatocytes (collected by the method described in “Techniques of Tissue Culture, Second edition”, Ed. by Japan Tissue Culture Association, Asakura Publishing, p. 135) were inoculated on the carrier for cell culture and cultured for 24 hours under the conditions of 37° C. and 5% CO2. In the same manner, 20,000 cells of rat vascular endothelial cells A-10 (Dainippon Pharmaceutical Co., Ltd.) were inoculated on the carrier for cell culture prepared in Example 1 and cultured for 72 hours under the conditions of 37° C. and 5% CO2.
The rat primary hepatocyte cell culture obtained was carefully placed on the MCF-7 cell layer on the 12-well microplate so that the side of the growth of the rat primary hepatocyte was on the side of the MCF-7 cells, and cultured for 24 hours under the conditions of 37° C. and 5% CO2. […]

Series [2] concerns rat uterus. As to conditions: in vivo; cited from earlier work.
The test system of series [3] is rat primary hepatocytes. In words: AST release into the medium from cultured hepatocytes after adding the substance. It is filed as cell-based. As to conditions: 0.1 μg/ml, measured over time. On the procedure: Rat primary hepatocytes (collected by the method described in “Techniques of Tissue Culture, Second edition”, Ed. by Japan Tissue Culture Association, Asakura Publishing, p. 135) were inoculated on a 12-well microplate (FALCON, No. 3505) in an amount of 50000 cells/well and cultured for 24 hours under the conditions of 37° C. and 5% CO2. Separately, the carrier for cell culture prepared in Example 1 was adhered to bottom of a 20-mm petri dish (FALCON, No. 2163) with a small amount of sterilized water. 20,000 cells of rat vascular endothelial cells A-10 (Dainippon Pharmaceutical Co., Ltd.) were inoculated on the carrier for cell culture and cultured for 72 hours under the conditions of 37° C. and 5% CO2. As the medium, 10% FBS Eagle's MEM medium (GIBCO) was used for both cultures. The rat vascular endothelial cell culture obtained was carefully placed on the aforementioned rat primary hepatocytes on the 12-well microplate so that the cell growing side contacted with the rat primary hepatocytes, and cultured for 24 hours under the conditions of 37° C. and 5% CO2. […]
The laminated cell culture prepared in Example 2 and the hepatocytes cultured as monolayer culture was added with 0.1 μg/ml of chloropramazine, and the amount of AST released into the medium was measured over time.

This is an account of results in patent US20060199172A1, “Laminated cell culture containing hepatocytes and method for detecting endocrine-like substance” (FUJI PHOTO FILM CO., LTD., priority 2005, published 2006).

On to `CC(C)c1cc(C(C)C)c2ccccc2c1` [2,4-diisopropylnaphthalene], for which the “number of MCF-7 cells” value in series [1] is listed as “maximum value”. In addition, in series [2], the “rat uterus proliferation test result” value is recorded as “positive”.
For `CN(C)CCCN1c2ccccc2Sc2ccc(Cl)cc21` [chloropramazine], the “amount of AST released into the medium” value is reported as “increase in the amount of AST was observed” in series [3] (laminated cell culture (rat primary hepatocytes + rat vascular endothelial cells A-10)) and “AST was not detected” in series [3] (primary hepatocytes cultured as monolayer culture).
